# According to article PMC9154793, “Design, synthesis, and biological evaluation of triazole-pyrimidine-methylbenzonitrile derivatives as dual A2A/A2B adenosine receptor antagonists” (Journal of Enzyme Inhibition and Medicinal Chemistry, 2022):
# How the values were obtained:
# human A2B AR = target: T1, human A2B AR (Homo sapiens, UniProt P29275); assay: cAMP functional assay in CHO-K1/ADORA2b/Gα15 cells (NECA-stimulated, HTRF); format: cell-based; settings: mean ± SEM; for inhibition at 0.1 µM: CHO-K1, read-out: hA2B AR (%) inhibition of cAMP, 100 nM; for IC50: CHO cells expressing hA2B AR, read-out: cAMP IC50 hA2B AR
# T1 sequence (P29275 1-332): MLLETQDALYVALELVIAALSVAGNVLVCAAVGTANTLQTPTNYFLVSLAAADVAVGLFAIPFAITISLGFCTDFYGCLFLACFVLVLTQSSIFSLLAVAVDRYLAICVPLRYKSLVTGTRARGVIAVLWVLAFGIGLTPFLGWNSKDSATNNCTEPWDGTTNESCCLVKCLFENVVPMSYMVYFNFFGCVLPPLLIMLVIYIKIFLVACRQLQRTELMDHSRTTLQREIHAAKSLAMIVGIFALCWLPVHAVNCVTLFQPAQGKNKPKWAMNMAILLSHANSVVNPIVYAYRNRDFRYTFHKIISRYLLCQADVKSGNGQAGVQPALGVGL
# Experimental: (§16) In the cAMP assay, CHO-K1/ADORA2A/Gα15 cells expressing human A2A AR and CHO-K1/ADORA2b/Gα15 cells expressing human A2B AR were activated by 5′-(N-ethylcarboxamido)adenosine (NECA) and triggered the accumulation of intracellular cAMP concentration.
# (§17) CHO-K1/ADORA2A/Gα15 cells expressing human A2A AR and CHO-K1/ADORA2b/Gα15 cells expressing human A2B AR were both constructed by Genscript Biotech Corporation. […] The test stock solutions were diluted with different gradients for use. The procedure was exemplified by the cAMP functional assay on the A2A receptor: 10,000 cells/well of CHO-K1/ADORA2A/Gα15 were seeded in a 384-well plate in 20 μl of assay buffer. […] Then, 10 μl of detection reagent (cAMP-d2 and anti-cAMP-Eu3+) was added into each well of the plate and incubated at room temperature for 1 h.
# human A2A AR = human A2A AR (Homo sapiens, UniProt P29274); assay: cAMP functional assay in CHO-K1/ADORA2A/Gα15 cells (NECA-stimulated, HTRF); format: cell-based; settings: for inhibition at 0.01 µM / inhibition at 0.1 µM / inhibition at 1 µM: CHO-K1; for inhibition at 0.01 µM: read-out: hA2A AR (%) inhibition of cAMP, 10 nM; for inhibition at 0.1 µM: read-out: hA2A AR (%) inhibition of cAMP, 100 nM; for inhibition at 1 µM: read-out: hA2A AR (%) inhibition of cAMP, 1000 nM; for IC50: CHO cells expressing hA2A AR, read-out: cAMP IC50 hA2A AR; for fold less active than compound 7i (cAMP IC50, A2A receptor): ratio of cAMP IC50 values vs 7i;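 on all read-outs here: inhibition of NECA-driven intracellular cAMP build-up in the A2A-expressing cells, quantified with cAMP-d2 plus Eu3+-labelled anti-cAMP detection reagent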
# Sequence of human A2A AR (P29274 whole entry): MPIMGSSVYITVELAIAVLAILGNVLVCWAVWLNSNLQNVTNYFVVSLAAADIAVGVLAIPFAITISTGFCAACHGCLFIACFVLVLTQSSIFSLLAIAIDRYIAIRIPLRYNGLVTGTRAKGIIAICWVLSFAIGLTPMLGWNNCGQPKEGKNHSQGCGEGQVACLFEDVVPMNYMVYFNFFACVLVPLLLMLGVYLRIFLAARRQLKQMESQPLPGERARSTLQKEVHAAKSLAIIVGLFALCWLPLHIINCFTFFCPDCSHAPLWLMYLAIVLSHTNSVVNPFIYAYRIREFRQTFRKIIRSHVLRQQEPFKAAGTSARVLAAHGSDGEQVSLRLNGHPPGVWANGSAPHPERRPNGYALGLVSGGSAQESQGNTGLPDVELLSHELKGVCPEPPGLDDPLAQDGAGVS
# Experimental: as §16, §17
# [1] = Metabolic stability in rat liver microsomes; format: in vitro ADME, Sprague–Dawley rats
# Experimental: (§1) The metabolic stability is an important focus for further compound optimisation. Compounds 7f, 7i, and AB928 were chosen to evaluate the stability in rat liver microsomes and human liver microsomes. For the microsomal metabolic experiment, 7-ethoxycoumarin (7-EC) was used as a control. As shown in Table 4 (see Supporting information for raw data), the CLint(liver) of 7-EC in rats and humans was 10.0 and 9.0 ml/min/g liver, respectively, indicating the experimental test system was reliable.
# (§2) Metabolic stabilities of compounds 7f, 7i, and AB928 in liver microsomes were studied with pooled human (male) liver microsomes solution (20 mg/ml) and male Sprague–Dawley rats pooled liver microsomes solution (20 mg/ml) purchased from Research Institute for Liver Diseases (Shanghai) Co. Ltd. Both liver microsomes solutions (140 μl) were diluted by 3948 μl of water and 280 μl of phosphate buffered saline. The assay procedure: 640 μl of diluted liver microsomes solution was added to a solution of compound working solution (16 μl, 25 μM in DMSO) and the mixed solution was incubated at 37 °C for 5 min. Then 160 μl of NADPH generating system was added and take out 100 μl from the mixed solution was added 200 μl of acetonitrile solution to stop the reaction at the set incubation time (0 min, 10 min, 20 min, 30 min, 40 min, 50 min, and 60 min). All stopped reaction solutions were vortex mixed (3 min) and centrifuged (10,000 rpm, 4 °C for 10 min). Then 50 μl of the supernatant was analysed by UPLC-MS/MS system (details of the analytical method see Supporting information). […]
# (§3) 8. Metabolic stability in human and rat liver microsomes
# (§4) Metabolic stabilities of compounds 7f, 7i and AB928 in liver microsomes were studied with pooled human (male) liver microsomes solution (20 mg/mL) and male Sprague - Dawley rats pooled liver microsomes solution (20 mg/mL) purchased from Research Institute for Liver Diseases (Shanghai) Co. Ltd. Both liver microsomes solutions (140 μL) were diluted by 3948 μL of water and 280 μL of phosphate buffered saline. The assay procedure: 640 μL of diluted liver microsomes solution was added to a solution of compound working solution (16 μL, 25 μM in DMSO) and the mixed solution was […]
# (§5) (1 picture or pasted object on this page, not shown here) […]
# (§6) incubated at 37 ℃ for 5 min. Then 160 μL of NADPH generating system was added and take out 100 μL from the mixed solution was added 200 μL of acetonitrile solution to stop the reaction at the set incubation time (0 min, 10 min, 20 min, 30 min, 40 min, 50 min, and 60 min). All stopped reaction solutions were vortex mixed (3 min) and centrifuged (10000 rpm, 4 ℃ for 10 min). Then 50 μL of the supernatant was analyzed […]
# (§7) 8.2 Chromatography and mass spectrometry conditions
# (§8) UPLC was performed using an […] UPLC system (Waters, Milford, MA, […]
# (§9) USA). Separation was achieved on a Waters BEH C18 column(100 mm × 2.1 mm， 1.7 μm) at 40 ℃. The injection volume of the sample solution was 5 μL. The mobile phase consisted of water (0.1% formic acid and ammonium acetate) and acetonitrile solution (20:80, v/v) at a flow rate of 0.4 mL/min within a running time of 6 min. Mass spectrometric analysis was performed on a Waters Xevo TQ-S triple quadrupole instrument using electrospray ionization in positive mode. Quantification was performed using multiple reaction monitoring (MRM) mode to monitor precursor-product ion transitions (Table S1).
# (§10) Table S1. Conditions of MRM Detection. […]
# (§11) Table S2. Raw data of metabolic stability in human and rat liver microsomes. […]
# (§12) (min) Hum Rat Hum Rat Hum Rat Hum Rat
# (§13) 9. Analytical method of pharmacokinetics assay
# (§14) Animal experiments were performed according to the institutional ethical guidelines on animal care and approved by the Institute Animal Care and Use Committee at Binzhou […]
# (§15) Female Bal b/c mice (sourced from Jinan Pengyue Experimental Animal Breeding […]
# [2] = Metabolic stability in human liver microsomes; format: in vitro ADME
# Experimental: as §1, §2, §3, §4, §5, §6, §7, §8, §9, §10, §11, §12, §13, §14, §15
# [3] = compound at 100 nM, relative to ZM241385 at 1 μM
# [4] = compound at 10 nM, relative to ZM241385 at 1 μM, mean ± SEM
# [5] = compound at 100 nM, relative to ZM241385 at 1 μM, mean ± SEM
# [6] = compound at 1000 nM, relative to ZM241385 at 1 μM, mean ± SEM
Molecule,inhibition at 0.1 µM (human A2B AR; [3]),inhibition at 0.01 µM (human A2A AR; [4]),inhibition at 0.1 µM (human A2A AR; [5]),inhibition at 1 µM (human A2A AR; [6]),melting point,also measured
"Cc1c(C#N)cccc1-c1cc(-c2cn(Cc3ccc4cccc(N)c4n3)nn2)nc(N)n1 [Compound 7c, 3-(2-amino-6-(1-((8-aminoquinolin-2-yl)methyl)-1H-1,2,3-triazol-4-yl)pyrimidin-4-yl)-2-methylbenzonitrile]",85.43 ± 0.04%,35.9 ± 5.39%,38.2 ± 10.8%,48.5 ± 1.45%,268 to 269 °C,
"Cc1c(C#N)cccc1-c1cc(-c2cn(Cc3cccc(C(=O)N4CC(O)C4)n3)nn2)nc(N)n1 [Compound 7k, 3-(2-Amino-6-(1-((6–(3-hydroxyazetidine-1-carbonyl)pyridin-2-yl)methyl)-1H-1,2,3-triazol-4-yl)pyrimidin-4-yl)-2-methylbenzonitrile]",78.3 ± 2.66%,21.7 ± 5.43%,70.5 ± 6.37%,94.9 ± 2.05%,,
"3-(2-Amino-6-(1-((6–(2-(hydroxymethyl)pyrrolidine-1-carbonyl)pyridin-2-yl)methyl)-1H-1,2,3-triazol-4-yl)pyrimidin-4-yl)-2-methylbenzonitrile [Compound 7l]",,,,,,"hA2B AR (%) inhibition of cAMP, 100 nM (human A2B AR; [3]): 84.34 ± 4.72%; hA2A AR (%) inhibition of cAMP, 10 nM (human A2A AR; [4]): 13.46 ± 3.71%; hA2A AR (%) inhibition of cAMP, 100 nM (human A2A AR; [5]): 52.3 ± 8.46%; hA2A AR (%) inhibition of cAMP, 1000 nM (human A2A AR; [6]): 89.66 ± 1.31%"
"COc1ccc(Cn2cc(-c3cc(-c4cccc(C#N)c4C)nc(N)n3)nn2)cc1 [Compound 7n, 3-(2-Amino-6-(1-(4-methoxybenzyl)-1H-1,2,3-triazol-4-yl)pyrimidin-4-yl)-2-methylbenzonitrile]",63.5 ± 4.93%,18.8 ± 3.88%,29.8 ± 0.38%,54.8 ± 2.41%,149 to 150 °C,
"Cc1c(C#N)cccc1-c1cc(-c2cn(Cc3cccc(-c4ncc[nH]4)n3)nn2)nc(N)n1 [Compound 7g, 3-(6-(1-((6-(1H-imidazol-2-yl)pyridin-2-yl)methyl)-1H-1,2,3-triazol-4-yl)-2-aminopyrimidin-4-yl)-2-methylbenzonitrile]",52.9 ± 3.96%,19.6 ± 2.13%,56 ± 2.03%,107.3 ± 0.89%,139 to 140 °C,
"CCOc1ccc2ccc(=O)oc2c1 [Compound 7-EC, 7-ethoxycoumarin, reference compound]",,,,,,"remaining at 10 min, 0.49 µM ([1]; male, Sprague-Dawley, pooled rat liver microsomes, rat liver microsomes, 10 min): 49%; remaining at 20 min, 0.49 µM ([1]; male, Sprague-Dawley, pooled rat liver microsomes, rat liver microsomes, 20 min): 23%; remaining at 0.5 h, 0.49 µM ([1]; male, Sprague-Dawley, pooled rat liver microsomes, rat liver microsomes, 30 min): 10.4%; remaining at 40 min, 0.49 µM ([1]; male, Sprague-Dawley, pooled rat liver microsomes, rat liver microsomes, 40 min): 2.98%; remaining at 50 min, 0.49 µM ([1]; male, Sprague-Dawley, pooled rat liver microsomes, rat liver microsomes, 50 min): 1.02%; remaining at 1 h, 0.49 µM ([1]; male, Sprague-Dawley, pooled rat liver microsomes, rat liver microsomes, 60 min, read-out: Remaining (%, T = 60min) Rat): 0.35%; half-life at 0.49 µM ([1]; male, Sprague-Dawley, rat, pooled rat liver microsomes, read-out: T1/2 Rat): 7.26 min; CLint(liver) Rat ([1]; rat liver microsomes): 10.0 mL/min/g; CLint(liver) Hum ([2]; human, microsomes): 9.0 mL/min/g; half-life at 0.49 µM ([2]; male, human, microsomes): 8.12 min; remaining at 20 min, 0.49 µM ([2]; male, human, microsomes): 11.5%; remaining at 0.5 h, 0.49 µM ([2]; male, human, microsomes): 3.54%; remaining at 40 min, 0.49 µM ([2]; male, human, microsomes): 1.6%; remaining at 50 min, 0.49 µM ([2]; male, human, microsomes): 0.97%; remaining at 1 h, 0.49 µM ([2]; male, human, microsomes): 0.72%; remaining at 10 min, 0.49 µM ([2]; male, human liver microsomes, 10 min, read-out: %Remaining Hum, 10 min): 34%"

# Now from value to molecule, other results behind:
inhibition at 0.1 µM (human A2B AR; [3]),inhibition at 0.01 µM (human A2A AR; [4]),inhibition at 0.1 µM (human A2A AR; [5]),inhibition at 1 µM (human A2A AR; [6]),melting point,Molecule,also measured
64.4 ± 0.89%,17.6 ± 2.78%,92.28 ± 0.61%,92.7 ± 2.87%,188 to 189 °C,"Cc1ccc(-c2cc(-c3cn(Cc4cccc(C(C)(C)O)n4)nn3)nc(N)n2)o1 [Compound 17, 2-(6-((4-(2-Amino-6-(5-methylfuran-2-yl)pyrimidin-4-yl)-1H-1,2,3-triazol-1-yl)methyl)pyridin-2-yl)propan-2-ol]","IC50 (human A2B AR): 80 ± 13.4 nM; IC50 (human A2A AR; mean ± SEM): 321 ± 94 nM; fold less active than compound 7i (cAMP IC50, A2A receptor) (human A2A AR): 52 fold"
54.8 ± 2.09%,37.9 ± 2.32%,55.2 ± 4.27%,92.6 ± 1.91%,176 to 177 °C,"Cc1c(C#N)cccc1-c1cc(-c2cn(Cc3cccc(C(=O)O)n3)nn2)nc(N)n1 [Compound 7h, 6-((4-(2-amino-6–(3-cyano-2-methylphenyl)pyrimidin-4-yl)-1H-1,2,3-triazol-1-yl)methyl)picolinic acid]",
69.4 ± 4.01%,21.5 ± 4.32%,28.6 ± 4.03%,69.6 ± 1.01%,163 to 164 °C,"COc1cccc(Cn2cc(-c3cc(-c4cccc(C#N)c4C)nc(N)n3)nn2)c1 [Compound 7m, 3-(2-Amino-6-(1-(3-methoxybenzyl)-1H-1,2,3-triazol-4-yl)pyrimidin-4-yl)-2-methylbenzonitrile]",
80.3 ± 1.84%,40.8 ± 9.01%,63.4 ± 1.39%,91.3 ± 4.28%,105 to 106 °C,"COC(=O)c1cccc(Cn2cc(-c3cc(-c4cccc(C#N)c4C)nc(N)n3)nn2)n1 [Compound 7d, Methyl 6-((4-(2-amino-6-(3-cyano-2-methylphenyl)pyrimidin-4-yl)-1H-1,2,3-triazol-1-yl)methyl)picolinate]",
82.4 ± 4.52%,22.4 ± 6.68%,82.2 ± 1.26%,101 ± 4.62%,208 to 209 °C,"Cc1c(C#N)cccc1-c1cc(-c2cn(Cc3cccc(C(=O)NCCO)n3)nn2)nc(N)n1 [Compound 7j, 6-((4-(2-Amino-6-(3-cyano-2-methylphenyl)pyrimidin-4-yl)-1H-1,2,3-triazol-1-yl)methyl)-N-(2-hydroxyethyl)picolinamide]",
19.9 ± 1.85%,22.4 ± 11.9%,94.7 ± 4.43%,93.6 ± 2.76%,76 to 77 °C,"CC(C)(O)c1cccc(Cn2cc(-c3cc(-c4cccc(CF)c4)nc(N)n3)nn2)n1 [Compound 22, 2-(6-((4-(2-amino-6-(3-(fluoromethyl)phenyl)pyrimidin-4-yl)-1H-1,2,3-triazol-1-yl)methyl)pyridin-2-yl)propan-2-ol]","IC50 (human A2B AR): 178 ± 9.89 nM; IC50 (human A2A AR; mean ± SEM): 67.2 ± 10.9 nM; fold less active than compound 7i (cAMP IC50, A2A receptor) (human A2A AR): 11 fold"
